In publication doi:10.1101/2021.04.08.439011v1 (biorxiv, 2021):
Read-outs that look alike come from different tables or passages of the source.

Key:
[1] = biological target: ABL1(H396P) (Homo sapiens, UniProt P00519, H396P); conditions: 0.1 µM, binder
[2] = biological target: AKT1 (Homo sapiens, UniProt P31749); conditions: 0.1 µM; binder
[3] = biological target: ALK(L1196M) (Homo sapiens, UniProt Q9UM73, L1196M); conditions: 0.1 µM; binder
[4] = biological target: ASK2 (Homo sapiens, UniProt O95382); conditions: 0.1 µM; binder
[5] = biological target: BMPR1B (Homo sapiens, UniProt O00238); conditions: 0.1 µM; binder
[6] = biological target: CDK3 (Homo sapiens, UniProt Q00526); conditions: 0.1 µM; binder
[7] = biological target: CDK4 (Homo sapiens, UniProt P11802); conditions: 0.1 µM; binder
[8] = biological target: CDK9 (Homo sapiens, UniProt P50750); conditions: 0.1 µM; binder
[9] = biological target: CLK1 (Homo sapiens, UniProt P49759); conditions: 0.1 µM; binder
[10] = biological target: EPHA3 (Homo sapiens, UniProt P29320); conditions: 0.1 µM; binder
[11] = biological target: EPHA5 (Homo sapiens, UniProt P54756); conditions: 0.1 µM; binder
[12] = biological target: EPHA7 (Homo sapiens, UniProt Q15375); conditions: 0.1 µM; binder
[13] = biological target: FLT4 (Homo sapiens, UniProt P35916); conditions: 0.1 µM; binder
[14] = biological target: HCK (Homo sapiens, UniProt P08631); conditions: 0.1 µM; binder
[15] = biological target: LCK (Homo sapiens, UniProt P06239); conditions: 0.1 µM; binder
[16] = biological target: LYN (Homo sapiens, UniProt P07948); conditions: 0.1 µM; binder
[17] = biological target: MELK (Homo sapiens, UniProt Q14680); conditions: 0.1 µM; binder
[18] = biological target: MKNK1 (Homo sapiens, UniProt Q9BUB5); conditions: 0.1 µM; binder
[19] = biological target: MRCKA (Homo sapiens, UniProt Q5VT25); conditions: 0.1 µM; binder
[20] = biological target: NEK1 (Homo sapiens, UniProt Q96PY6); conditions: 0.1 µM; binder
[21] = biological target: PIK3CG (Homo sapiens, UniProt P48736); conditions: 0.1 µM; binder
[22] = biological target: PIM1 (Homo sapiens, UniProt P11309); conditions: 0.1 µM; binder
[23] = biological target: PKMYT1 (Homo sapiens, UniProt Q99640); conditions: 0.1 µM; binder
[24] = biological target: PRKCE (Homo sapiens, UniProt Q02156); conditions: 0.1 µM; binder
[25] = biological target: S6K1 (Homo sapiens, UniProt P23443); conditions: 0.1 µM; binder
[26] = biological target: STK35 (Homo sapiens, UniProt Q8TDR2); conditions: 0.1 µM; binder
[27] = biological target: SYK (Homo sapiens, UniProt P43405); conditions: 0.1 µM; binder
[28] = biological target: TAOK3 (Homo sapiens, UniProt Q9H2K8); conditions: 0.1 µM; binder
[29] = biological target: WNK4 (Homo sapiens, UniProt Q96J92); conditions: 0.1 µM; binder
[30] = biological target: YANK1 (Homo sapiens, UniProt Q8WU08); conditions: 0.1 µM; binder
[31] = biological target: p38-gamma (Homo sapiens, UniProt P53778); conditions: 0.1 µM; binder

Sequence of MKNK1 (Q9BUB5 whole entry): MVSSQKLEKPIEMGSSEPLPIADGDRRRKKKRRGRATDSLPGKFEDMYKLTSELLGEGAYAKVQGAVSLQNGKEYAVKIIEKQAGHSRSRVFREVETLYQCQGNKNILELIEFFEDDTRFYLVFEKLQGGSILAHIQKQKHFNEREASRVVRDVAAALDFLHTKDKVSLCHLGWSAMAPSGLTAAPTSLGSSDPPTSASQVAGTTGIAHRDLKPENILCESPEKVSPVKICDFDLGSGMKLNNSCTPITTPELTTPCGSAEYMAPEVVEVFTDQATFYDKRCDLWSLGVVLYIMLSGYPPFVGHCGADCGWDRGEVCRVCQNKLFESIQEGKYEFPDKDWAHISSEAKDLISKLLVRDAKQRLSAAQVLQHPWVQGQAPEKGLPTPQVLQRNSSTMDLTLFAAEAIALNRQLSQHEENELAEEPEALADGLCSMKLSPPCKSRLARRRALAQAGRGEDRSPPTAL
Sequence of PRKCE (Q02156 whole entry): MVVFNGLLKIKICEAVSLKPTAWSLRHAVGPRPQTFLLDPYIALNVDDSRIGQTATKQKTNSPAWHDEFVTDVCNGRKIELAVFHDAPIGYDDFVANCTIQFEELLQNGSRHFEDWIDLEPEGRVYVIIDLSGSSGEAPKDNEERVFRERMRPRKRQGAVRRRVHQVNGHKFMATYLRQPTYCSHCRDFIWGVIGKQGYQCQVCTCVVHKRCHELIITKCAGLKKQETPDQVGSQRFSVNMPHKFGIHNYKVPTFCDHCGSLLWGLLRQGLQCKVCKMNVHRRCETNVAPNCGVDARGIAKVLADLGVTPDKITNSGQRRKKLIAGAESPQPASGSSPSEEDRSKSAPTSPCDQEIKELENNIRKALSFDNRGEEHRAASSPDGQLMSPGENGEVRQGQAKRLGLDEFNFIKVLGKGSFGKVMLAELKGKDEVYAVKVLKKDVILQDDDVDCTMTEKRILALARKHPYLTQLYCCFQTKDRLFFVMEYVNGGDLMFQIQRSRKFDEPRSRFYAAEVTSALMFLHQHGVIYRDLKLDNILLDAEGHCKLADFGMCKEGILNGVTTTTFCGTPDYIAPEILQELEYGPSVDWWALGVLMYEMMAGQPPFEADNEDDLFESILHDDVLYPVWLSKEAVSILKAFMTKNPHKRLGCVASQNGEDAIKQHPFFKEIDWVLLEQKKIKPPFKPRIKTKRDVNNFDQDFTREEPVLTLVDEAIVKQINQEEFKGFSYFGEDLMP
Sequence of PIM1 (P11309 whole entry): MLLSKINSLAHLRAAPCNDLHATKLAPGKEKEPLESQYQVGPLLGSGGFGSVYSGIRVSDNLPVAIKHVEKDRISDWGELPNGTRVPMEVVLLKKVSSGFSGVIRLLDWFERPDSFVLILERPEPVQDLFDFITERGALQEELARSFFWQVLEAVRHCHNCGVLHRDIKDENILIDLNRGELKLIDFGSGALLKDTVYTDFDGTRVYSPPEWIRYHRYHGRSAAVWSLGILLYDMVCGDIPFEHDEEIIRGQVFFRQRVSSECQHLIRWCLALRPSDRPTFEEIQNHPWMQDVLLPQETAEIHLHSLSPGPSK
Sequence of ASK2 (O95382 whole entry): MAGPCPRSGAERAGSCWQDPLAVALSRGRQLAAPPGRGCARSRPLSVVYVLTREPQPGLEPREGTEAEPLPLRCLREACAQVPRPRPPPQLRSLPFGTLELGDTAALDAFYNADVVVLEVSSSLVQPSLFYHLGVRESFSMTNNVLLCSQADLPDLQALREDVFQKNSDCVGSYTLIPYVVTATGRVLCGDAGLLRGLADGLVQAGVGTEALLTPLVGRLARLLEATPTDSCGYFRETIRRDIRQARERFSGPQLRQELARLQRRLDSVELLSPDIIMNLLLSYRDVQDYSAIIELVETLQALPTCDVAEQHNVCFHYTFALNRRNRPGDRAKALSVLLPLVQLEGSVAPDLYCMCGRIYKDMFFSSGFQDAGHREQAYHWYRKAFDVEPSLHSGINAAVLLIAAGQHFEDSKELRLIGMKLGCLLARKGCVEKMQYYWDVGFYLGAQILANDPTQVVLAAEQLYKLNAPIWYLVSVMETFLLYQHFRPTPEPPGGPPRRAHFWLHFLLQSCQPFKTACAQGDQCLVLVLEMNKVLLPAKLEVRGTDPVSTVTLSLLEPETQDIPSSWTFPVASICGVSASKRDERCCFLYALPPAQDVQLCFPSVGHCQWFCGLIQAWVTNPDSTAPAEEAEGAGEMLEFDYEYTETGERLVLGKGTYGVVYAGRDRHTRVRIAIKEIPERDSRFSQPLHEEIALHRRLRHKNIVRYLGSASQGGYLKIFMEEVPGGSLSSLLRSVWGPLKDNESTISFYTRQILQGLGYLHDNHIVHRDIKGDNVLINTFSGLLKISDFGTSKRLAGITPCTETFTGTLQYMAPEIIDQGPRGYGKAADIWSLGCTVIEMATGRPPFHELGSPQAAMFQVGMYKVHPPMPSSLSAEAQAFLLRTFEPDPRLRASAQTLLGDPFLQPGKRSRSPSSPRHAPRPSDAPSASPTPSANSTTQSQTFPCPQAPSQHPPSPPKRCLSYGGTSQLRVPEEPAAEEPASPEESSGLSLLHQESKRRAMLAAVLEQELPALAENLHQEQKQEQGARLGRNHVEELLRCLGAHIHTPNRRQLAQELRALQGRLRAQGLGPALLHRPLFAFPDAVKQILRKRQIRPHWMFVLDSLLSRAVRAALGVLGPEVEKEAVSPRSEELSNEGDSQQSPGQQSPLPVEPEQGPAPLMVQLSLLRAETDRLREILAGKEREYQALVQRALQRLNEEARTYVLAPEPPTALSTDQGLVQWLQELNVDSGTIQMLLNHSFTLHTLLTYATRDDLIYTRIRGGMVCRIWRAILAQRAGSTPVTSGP
Sequence of NEK1 (Q96PY6 whole entry): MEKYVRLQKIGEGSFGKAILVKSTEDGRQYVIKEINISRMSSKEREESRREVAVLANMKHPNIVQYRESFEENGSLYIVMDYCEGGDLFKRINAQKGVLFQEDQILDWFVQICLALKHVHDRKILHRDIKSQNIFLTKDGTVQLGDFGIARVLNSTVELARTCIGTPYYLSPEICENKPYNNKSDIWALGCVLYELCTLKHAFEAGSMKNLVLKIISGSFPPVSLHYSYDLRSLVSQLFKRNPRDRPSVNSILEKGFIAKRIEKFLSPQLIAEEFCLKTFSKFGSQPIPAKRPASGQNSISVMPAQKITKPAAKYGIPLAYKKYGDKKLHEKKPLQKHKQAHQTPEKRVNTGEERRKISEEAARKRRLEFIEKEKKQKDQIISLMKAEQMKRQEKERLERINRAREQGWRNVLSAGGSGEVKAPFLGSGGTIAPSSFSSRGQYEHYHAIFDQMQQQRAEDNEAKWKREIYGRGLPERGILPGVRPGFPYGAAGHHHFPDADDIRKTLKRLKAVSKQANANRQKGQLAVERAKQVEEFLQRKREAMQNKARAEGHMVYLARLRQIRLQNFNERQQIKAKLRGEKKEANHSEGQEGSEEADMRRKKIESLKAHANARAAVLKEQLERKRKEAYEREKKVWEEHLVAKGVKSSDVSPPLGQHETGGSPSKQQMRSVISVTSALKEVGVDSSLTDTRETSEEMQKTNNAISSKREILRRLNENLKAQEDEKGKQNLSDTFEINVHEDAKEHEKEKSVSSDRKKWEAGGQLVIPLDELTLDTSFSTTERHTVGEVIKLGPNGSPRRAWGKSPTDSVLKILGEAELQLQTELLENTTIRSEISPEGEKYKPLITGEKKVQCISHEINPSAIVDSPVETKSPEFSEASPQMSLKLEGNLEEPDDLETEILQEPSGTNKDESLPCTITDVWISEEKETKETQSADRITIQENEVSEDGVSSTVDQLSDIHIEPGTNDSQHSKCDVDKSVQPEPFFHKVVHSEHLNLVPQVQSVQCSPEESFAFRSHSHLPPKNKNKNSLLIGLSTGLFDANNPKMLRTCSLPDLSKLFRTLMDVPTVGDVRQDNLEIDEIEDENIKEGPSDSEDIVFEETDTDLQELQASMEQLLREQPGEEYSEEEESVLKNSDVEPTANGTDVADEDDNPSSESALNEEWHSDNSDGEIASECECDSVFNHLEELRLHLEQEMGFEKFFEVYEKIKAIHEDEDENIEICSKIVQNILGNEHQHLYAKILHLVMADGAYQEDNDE
Sequence of BMPR1B (O00238 whole entry): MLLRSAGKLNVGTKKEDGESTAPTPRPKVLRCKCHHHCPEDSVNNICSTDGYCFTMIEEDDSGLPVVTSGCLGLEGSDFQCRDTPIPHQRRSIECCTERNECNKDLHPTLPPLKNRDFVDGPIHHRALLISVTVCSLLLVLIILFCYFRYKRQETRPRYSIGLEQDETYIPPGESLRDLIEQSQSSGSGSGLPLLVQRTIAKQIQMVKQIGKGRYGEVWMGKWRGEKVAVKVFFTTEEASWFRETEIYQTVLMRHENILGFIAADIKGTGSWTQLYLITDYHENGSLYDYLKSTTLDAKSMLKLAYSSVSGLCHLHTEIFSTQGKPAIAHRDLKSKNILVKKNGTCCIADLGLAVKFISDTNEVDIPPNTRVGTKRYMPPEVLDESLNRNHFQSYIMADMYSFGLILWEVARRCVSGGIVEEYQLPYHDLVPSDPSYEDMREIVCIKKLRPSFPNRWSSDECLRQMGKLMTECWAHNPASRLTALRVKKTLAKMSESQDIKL
Sequence of LYN (P07948 whole entry): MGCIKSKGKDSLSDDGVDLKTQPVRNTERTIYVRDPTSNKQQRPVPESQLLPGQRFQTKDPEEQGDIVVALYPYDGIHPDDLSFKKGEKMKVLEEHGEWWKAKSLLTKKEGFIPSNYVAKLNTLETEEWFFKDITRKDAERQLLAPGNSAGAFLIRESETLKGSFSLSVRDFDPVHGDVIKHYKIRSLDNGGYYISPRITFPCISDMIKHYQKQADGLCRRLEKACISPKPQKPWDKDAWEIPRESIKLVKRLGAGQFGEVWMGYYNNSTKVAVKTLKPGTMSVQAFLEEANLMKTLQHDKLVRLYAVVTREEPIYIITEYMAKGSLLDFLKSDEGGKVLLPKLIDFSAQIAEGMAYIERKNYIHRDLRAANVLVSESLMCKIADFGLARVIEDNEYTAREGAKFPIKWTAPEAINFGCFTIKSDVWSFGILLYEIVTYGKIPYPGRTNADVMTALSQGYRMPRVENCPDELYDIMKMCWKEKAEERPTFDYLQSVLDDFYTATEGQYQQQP

CNc1ncc2cc(-c3ccc(-c4cccc(C)n4)cc3Cl)c(=O)n(C[C@H]3OC[C@H](N)CO3)c2n1 [compound 6, G-5555]
Percent Control ([1]; nonphosphorylated): 79% | Percent Control ([1]; phosphorylated): 97% | Percent Control [2]: 100% | Percent Control [3]: 100% | Percent Control [4]: 100% | Percent Control [5]: 95% | Percent Control [6]: 100% | Percent Control [7]: 100% | Percent Control [8]: 100% | Percent Control [9]: 100% | Percent Control [10]: 99% | Percent Control [11]: 100% | Percent Control [12]: 100% | Percent Control [13]: 100% | Percent Control [14]: 100% | Percent Control [15]: 58% | Percent Control [16]: 100% | Percent Control [17]: 51% | Percent Control [18]: 100% | Percent Control [19]: 100% | Percent Control [20]: 100% | Percent Control [21]: 87% | Percent Control [22]: 100% | Percent Control [23]: 100% | Percent Control [24]: 95% | Percent Control [25]: 92% | Percent Control [26]: 100% | Percent Control [27]: 100% | Percent Control [28]: 100% | Percent Control [29]: 96% | Percent Control [30]: 5.3% | Percent Control [31]: 100%
